# Results from patent US8513232B2, “Substituted spirocyclic piperidine derivatives as histamine-3 (H3) receptor ligands” (Cephalon, Inc., priority 2008, dated 2013).
# Where two headings read alike, the source gives them in different places.
# Key:
# human H3 receptor = target: T1, human H3 receptor (Homo sapiens, UniProt Q9Y5N1); assay: Human H3 radioligand binding ([3H]-N-alpha-methylhistamine, SPA)
# T1 construct: expressed in transfected cells
# Description: (§1) Methods: CHO cells stably expressing the human H3 receptor (GenBank: NM_007232) were harvested and cell pellets were frozen (−80° C.). Cell pellets were resuspended in 5 mM Tris-HCl, pH 7.5 with […] and a cocktail of protease inhibitors (Complete Protease Inhibitior Tablets, Roche Diagnostics). Cells were disrupted using a polytron cell homogenizer and the suspension was centrifuged at 1000×g for 10 minutes at 4° C. The pellet was discarded and the supernatant centrifuged at 40,000×g for 30 min at 4° C. This membrane pellet was washed in membrane buffer containing 50 mM Tris-HCl, pH 7.5 with 0.6 mM EDTA, 5 mM MgCl2 and protease inhibitors, recentrifuged as above and the final pellet resuspended in membrane buffer plus 250 mM sucrose and frozen at −80° C.
# (§2) Radioligand Binding. Membranes were resuspended in 50 mM Tris HCl (pH 7.4), 5 mM MgCl2, 0.1% BSA. The membrane suspensions (10 μg protein per well) were incubated in a 96 well microtiter plate with [^3H]-N-alpha-methylhistamine (approximately 1 nM final concentration), test compounds at various concentrations (0.01 nM-30 μM) and scintillation proximity beads (Perkin Elmer, FlashBlueGPCR Scintillating Beads) in a final volume of 80 μl for 4 hours at room temperature, protected from light. Non-specific binding was determined in the presence of 10 μM clobenpropit. Radioligand bound to receptor, and therefore in proximity to the scintillation beads, was measured using a MicroBeta scintillation counter.
# [1] = target: T2, rat histamine H3 receptor (Rattus norvegicus, UniProt Q9QYN8); assay: Rat H3 radioligand binding ([3H]-N-alpha-methylhistamine, SPA)
# T2 construct: encoding the entire 445-amino-acid rat histamine H3 receptor; expressed in transfected cells; membrane preparation
# T2 sequence (Q9QYN8 whole entry): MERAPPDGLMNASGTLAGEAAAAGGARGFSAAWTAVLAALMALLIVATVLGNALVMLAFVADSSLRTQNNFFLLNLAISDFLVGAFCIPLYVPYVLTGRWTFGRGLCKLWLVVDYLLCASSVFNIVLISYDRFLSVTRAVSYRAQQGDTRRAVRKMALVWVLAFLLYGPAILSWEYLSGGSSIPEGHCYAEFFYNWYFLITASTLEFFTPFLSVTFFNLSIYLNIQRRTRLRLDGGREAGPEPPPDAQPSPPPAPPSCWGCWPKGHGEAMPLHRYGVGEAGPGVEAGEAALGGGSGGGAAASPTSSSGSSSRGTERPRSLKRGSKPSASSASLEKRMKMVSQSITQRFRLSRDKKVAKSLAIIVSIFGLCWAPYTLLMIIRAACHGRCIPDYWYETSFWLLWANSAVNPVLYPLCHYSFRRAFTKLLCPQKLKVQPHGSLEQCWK
# Source text: as §1, with “Cell line development and membrane preparation. The rat” for “Methods: CHO cells stably expressing the human”, “cDNA was PCR amplified from reverse-transcribed RNA pooled from rat thalamus, hypothalamus, striatum and prefrontal cortex with a sequence corresponding to by #338-1672 of Genbank file #NM_053506, encoding the entire 445-amino-acid rat histamine H3 receptor. This was engineered into the pIRES-neo3 mammalian expression vector, which was stably transfected into the CHO-A3 cell line (Euroscreen, Belgium), followed by clonal selection by limiting dilution. Cells” for “(GenBank: NM_007232)”
# as §2
# [2] = Human H3 binding, Table B, Examples 136-362, read-out: hum H3 binding Ki
# [3] = Rat H3 binding, Table B, Examples 136-362, read-out: rat H3 binding Ki
# [4] = Table A, human H3 binding, read-out: Human Ki
# [5] = Table A, rat H3 binding, read-out: Rat Ki
# [6] = human H3 binding, Table D, read-out: Human H3 Ki
# [7] = rat H3 binding, Table D, read-out: Rat H3 Ki
# [8] = Table C, human H3 binding, read-out: Human H3 Ki
# [9] = Table C, rat H3 binding, read-out: Rat H3 Ki
# T1 sequence (Q9Y5N1 whole entry): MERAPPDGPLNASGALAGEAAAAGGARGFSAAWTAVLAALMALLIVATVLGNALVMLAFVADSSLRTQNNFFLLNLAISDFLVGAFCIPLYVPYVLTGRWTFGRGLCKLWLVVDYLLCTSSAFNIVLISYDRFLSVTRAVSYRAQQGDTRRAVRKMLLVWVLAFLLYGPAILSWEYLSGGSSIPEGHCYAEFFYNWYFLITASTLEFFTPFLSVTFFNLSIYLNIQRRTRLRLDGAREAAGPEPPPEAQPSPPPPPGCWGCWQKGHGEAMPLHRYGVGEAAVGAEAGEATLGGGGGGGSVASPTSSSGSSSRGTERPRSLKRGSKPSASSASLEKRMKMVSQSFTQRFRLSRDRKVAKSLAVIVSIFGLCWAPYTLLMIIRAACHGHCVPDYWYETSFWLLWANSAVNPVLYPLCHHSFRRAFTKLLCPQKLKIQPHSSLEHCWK
SMILES,Ki (human H3 receptor; [4]) [nM],"Ki [1, 5] [nM]",also measured
c1cnc(-c2ccc3c(c2)CCC2(CCN(C4CCC4)CC2)O3)cn1 [Example 145],–,–,"Ki (human H3 receptor; [2]): < 200 nM; Ki [1, 3]: < 200 nM"
O=S(=O)(NC1CC1)c1ccc(-c2ccc3c(c2)COC2(CCN(C4CCC4)CC2)O3)cc1 [Example 25],< 200,< 200,–
Nc1cccc(-c2ccc3c(c2)COC2(CCN(C4CCC4)CC2)O3)c1 [Example 51],< 200,< 200,–
c1cc2c(cc1-c1cn[nH]c1)CCC1(CCN(C3CCC3)CC1)O2 [Example 114],< 200,< 200,–
COC(c1ccncc1)c1ccc2c(c1)COC1(CCN(C3CCC3)CC1)O2 (stereo not shown) [Example 724],–,–,"Ki (human H3 receptor; [6]): < 200 nM; Ki [1, 7]: < 200 nM"
CNC(=O)c1ccc(-c2ccc3c(c2)CCC2(CCN(C4CCC4)CC2)O3)cc1 [Example 106],< 200,< 200,–
c1cc(-c2ccc3c(c2)COC2(CCN(C4CCC4)CC2)O3)cs1 [Example 13],< 200,< 200,–
CS(=O)(=O)c1ccc(-c2ccc3c(c2)CCC2(CCN(C4CCC4)CC2)O3)cc1 [Example 101],< 200,< 200,–
O=C(c1ccc(-c2ccc3c(c2)COC2(CCN(C4CCC4)CC2)O3)cc1)N1CCOCC1 [Example 9],< 200,< 200,–
O=C(Nc1ccc2c(c1)COC1(CCN(C3CCC3)CC1)O2)Nc1ccccc1Cl [Example 185],–,–,"Ki (human H3 receptor; [2]): < 200 nM; Ki [1, 3]: < 200 nM"
Fc1ccc(-c2ccc3c(c2)COC2(CCN(C4CCC4)CC2)O3)cn1 [Example 1],< 200,< 200,–
COc1ncc(-c2ccc3c(c2)CCC2(CCN(C4CCC4)CC2)O3)cn1 [Example 104],< 200,< 200,–
c1csc(-c2ccc3c(c2)COC2(CCN(C4CCC4)CC2)O3)c1 [Example 12],< 200,< 200,–
NS(=O)(=O)c1ccc(-c2ccc3c(c2)CCC2(CCN(C4CCC4)CC2)O3)cc1 [Example 116],< 200,< 200,–
O=C(c1ccncc1)N1CCN(c2ccc3c(c2)COC2(CCN(C4CCC4)CC2)O3)C(=O)C1 [Example 741],–,–,"Ki (human H3 receptor; [6]): < 200 nM; Ki [1, 7]: < 200 nM"
CN(C)C(=O)c1ccc(N2CCN(c3ccc4c(c3)CCC3(CCN(C5CCC5)CC3)O4)CC2)nc1 [Example 410],–,–,"Ki (human H3 receptor; [8]): < 200 nM; Ki [1, 9]: < 200 nM"
c1ccc2oc(-c3ccc4c(c3)COC3(CCN(C5CCC5)CC3)O4)cc2c1 [Example 6],200 to 1000,–,–
CCS(=O)(=O)c1cc(-c2ccc3c(c2)COC2(CCN(C4CCC4)CC2)O3)c[nH]c1=O [Example 807],–,–,"Ki (human H3 receptor; [6]): < 200 nM; Ki [1, 7]: < 200 nM"
CCNC(=O)C1CC=C(c2ccc3c(c2)COC2(CCN(C4CCC4)CC2)O3)CC1 (stereo not shown) [Example 523],–,–,Ki (human H3 receptor; read-out: Human H3 Ki): < 200 nM; Ki ([1]; read-out: Rat H3 kI): < 200 nM
N#Cc1ccc(-c2ccc3c(c2)OC2(CCN(C4CCC4)CC2)O3)cc1 [Example 88],200 to 1000,< 200,–
CCNC(=O)C1CCC(c2ccc3c(c2)COC2(CCN(C4CCC4)CC2)O3)CC1 (stereo not shown) [Example 524],–,–,Ki (human H3 receptor; read-out: Human H3 Ki): < 200 nM; Ki ([1]; read-out: Rat H3 kI): < 200 nM
c1ccc(-c2ccc3c(c2)CCC2(CCN(C4CCC4)CC2)O3)cc1 [Example 102],< 200,< 200,–
c1cc2c(cc1OC1CCSCC1)CCC1(CCN(C3CCC3)CC1)O2 [Example 457],–,–,Ki (human H3 receptor; read-out: Human H3 Ki): < 200 nM; Ki ([1]; read-out: Rat H3 kI): < 200 nM
CC(C)(C)OC(=O)n1cccc1-c1ccc2c(c1)COC1(CCN(C3CCC3)CC1)O2 [Example 706],–,–,"Ki (human H3 receptor; [6]): < 200 nM; Ki [1, 7]: < 200 nM"

SMILES,Ki (human H3 receptor; [4]) [nM],"Ki [1, 5] [nM]",also measured
N#Cc1ccccc1-c1ccc2c(c1)COC1(CCN(C3CCC3)CC1)O2 [Example 73],< 200,< 200,–
CCOc1ccc(-c2ccc3c(c2)CCC2(CCN(C4CCC4)CC2)O3)cn1 [Example 100],< 200,< 200,–
O=C(NC1CC1)c1cccc(-c2ccc3c(c2)COC2(CCN(C4CCC4)CC2)O3)c1 [Example 55],< 200,< 200,–
O=C(c1cccc(-c2ccc3c(c2)OC2(CCN(C4CCC4)CC2)O3)c1)N1CCOCC1 [Example 91],< 200,< 200,–
CNC(=O)c1ccc(-c2ccc3c(c2)COC2(CCN(C4CCC4)CC2)O3)cc1C#N [Example 179],–,–,"Ki (human H3 receptor; [2]): < 200 nM; Ki [1, 3]: < 200 nM"
O=S(=O)(c1ccc(-c2ccc3c(c2)COC2(CCN(C4CCC4)CC2)O3)cc1)N1CCC1 [Example 24],< 200,< 200,–
Cc1cc(-c2ccc3c(c2)COC2(CCN(C4CCC4)CC2)O3)cnc1OCc1ccccc1 [Example 549],–,–,Ki (human H3 receptor; read-out: Human H3 Ki): 200 to 1000 nM; Ki ([1]; read-out: Rat H3 kI): > 1000 nM
O=C(O)c1c(F)cc(-c2ccc3c(c2)CCC2(CCN(C4CCC4)CC2)O3)cc1F [Example 318],–,–,"Ki (human H3 receptor; [2]): < 200 nM; Ki [1, 3]: < 200 nM"
N#Cc1ccc(Oc2ccc3c(c2)COC2(CCN(C4CCC4)CC2)O3)cc1 [Example 132],< 200,< 200,–
c1cc2c(cc1OCC1CCCO1)CCC1(CCN(C3CCC3)C1)O2 (stereo not shown) [Example 445],–,–,Ki (human H3 receptor; read-out: Human H3 Ki): 200 to 1000 nM; Ki ([1]; read-out: Rat H3 kI): 200 to 1000 nM
c1cn2c(n1)CN(c1ccc3c(c1)CCC1(CCN(C4CCC4)CC1)O3)CC2 [Example 428],–,–,"Ki (human H3 receptor; [8]): < 200 nM; Ki [1, 9]: < 200 nM"
O=C(c1ccc(-c2ccc3c(c2)CCC2(CCN(C4CCC4)CC2)O3)cn1)N1CC[C@H](O)C1 [Example 213],–,–,"Ki (human H3 receptor; [2]): < 200 nM; Ki [1, 3]: < 200 nM"
O=S(=O)(c1ccc(-c2ccc3c(c2)COC2(CCN(C4CCC4)CC2)O3)cc1)N1CCCC1 [Example 16],< 200,< 200,–
c1cc2c(cc1OC1CCNCC1)CCC1(CCN(C3CCC3)CC1)O2 [Example 425],–,–,"Ki (human H3 receptor; [8]): < 200 nM; Ki [1, 9]: < 200 nM"
O=C(c1cccc(-c2ccc3c(c2)OC2(CCN(C4CCC4)CC2)OC3)c1)N1CCCC1 [Example 94],200 to 1000,200 to 1000,–
NC(=O)c1ccc(-c2ccc3c(c2)COC2(CCN(C4CCC4)CC2)O3)cc1 [Example 18],< 200,< 200,–
NC(=O)Nc1cccc(-c2ccc3c(c2)COC2(CCN(C4CCC4)CC2)O3)c1 [Example 52],< 200,< 200,–
COCc1cc(=O)n(C)cc1-c1ccc2c(c1)COC1(CCN(C3CCC3)CC1)O2 [Example 790],–,–,"Ki (human H3 receptor; [6]): < 200 nM; Ki [1, 7]: < 200 nM"
NC(=O)Cc1ccc(-c2ccc3c(c2)COC2(CCN(C4CCC4)CC2)O3)cc1 [Example 49],< 200,< 200,–
N#Cc1cccc(-c2ccc3c(c2)OC2(CCN(C4CCC4)CC2)O3)c1 [Example 92],200 to 1000,> 1000,–
CC(C)N1CCC2(CC1)OCc1cc(-c3ccc4c(c3)CCO4)ccc1O2 [Example 64],< 200,–,–
CC(C)N1CCC2(CC1)OCc1cc(-c3cccc(N)c3)ccc1O2 [Example 63],< 200,–,–
Nc1cccc(-c2ccc3c(c2)COC2(CCN(C4CCCC4)CC2)O3)c1 [Example 61],< 200,–,–
O=C(Nc1cccc(-c2ccc3c(c2)COC2(CCN(C4CCCC4)CC2)O3)c1)c1ccccc1 [Example 62],< 200,–,–
